Laboratory results as given in ChEMBL document CHEMBL1909046, “DrugMatrix in vitro pharmacology data”.

What was measured:
[1] = DRUGMATRIX: Sodium/nucleoside co-transporter radioligand binding (ligand: nitrobenzylthioinosine); format: cell membranes, Cavia porcellus, Dunkin-Hartley, Cerebral cortex, Membrane; settings: Not Active = under 50% inhibition at 10 µM
[2] = biological target: T1, Alpha-1B adrenergic receptor (Rattus norvegicus, UniProt P15823); experiment: DRUGMATRIX: Alpha-1B adrenergic receptor radioligand binding (ligand: prazosin); format: cell membranes, Wistar, Liver, Membrane; settings: Not Active = under 50% inhibition at 10 µM
T1 sequence (P15823 whole entry): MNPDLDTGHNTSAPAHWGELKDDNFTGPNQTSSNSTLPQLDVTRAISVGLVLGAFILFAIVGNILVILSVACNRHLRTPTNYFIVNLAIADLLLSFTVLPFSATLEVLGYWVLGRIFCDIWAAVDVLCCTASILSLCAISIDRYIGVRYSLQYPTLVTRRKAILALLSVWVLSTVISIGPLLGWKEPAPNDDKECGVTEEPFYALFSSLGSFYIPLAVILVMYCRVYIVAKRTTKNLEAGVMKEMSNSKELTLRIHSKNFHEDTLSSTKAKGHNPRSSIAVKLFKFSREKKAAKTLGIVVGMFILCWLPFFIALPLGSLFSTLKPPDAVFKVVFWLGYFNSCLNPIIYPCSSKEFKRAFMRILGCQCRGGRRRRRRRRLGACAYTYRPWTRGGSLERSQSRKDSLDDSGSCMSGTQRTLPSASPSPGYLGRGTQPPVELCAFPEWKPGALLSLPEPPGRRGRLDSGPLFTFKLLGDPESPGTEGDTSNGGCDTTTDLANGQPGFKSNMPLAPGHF

Cytochrome P450 2A6 = biological target: T2, Cytochrome P450 2A6 (Homo sapiens, UniProt P11509); settings: bti-tn-5b1-4; further: in other assays of this panel Not Active means under 50% inhibition at 10 µM
T2 sequence (P11509 whole entry): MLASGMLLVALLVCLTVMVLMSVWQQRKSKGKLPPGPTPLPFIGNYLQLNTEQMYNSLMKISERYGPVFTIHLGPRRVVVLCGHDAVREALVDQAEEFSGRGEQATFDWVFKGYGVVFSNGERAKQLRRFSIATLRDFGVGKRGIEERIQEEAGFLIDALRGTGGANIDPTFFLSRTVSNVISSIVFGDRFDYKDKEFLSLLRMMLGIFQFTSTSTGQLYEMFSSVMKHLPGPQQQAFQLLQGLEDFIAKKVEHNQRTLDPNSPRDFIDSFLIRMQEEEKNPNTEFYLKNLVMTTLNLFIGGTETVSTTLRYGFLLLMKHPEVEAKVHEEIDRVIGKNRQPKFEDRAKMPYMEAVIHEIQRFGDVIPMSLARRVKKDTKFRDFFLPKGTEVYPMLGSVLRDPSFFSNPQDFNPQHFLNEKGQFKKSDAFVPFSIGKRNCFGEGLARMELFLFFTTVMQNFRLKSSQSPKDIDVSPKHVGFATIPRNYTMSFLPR

[3] = DRUGMATRIX: Nicotinic Acetylcholine radioligand binding (ligand: [125I] Epibatidine); format: cell membranes, Membrane; settings: imr-32; Not Active = under 50% inhibition at 10 µM
[4] = DRUGMATRIX: Glutamate, AMPA radioligand binding (ligand: [3H] AMPA); format: cell membranes, Rattus norvegicus, Wistar, Cerebral cortex, Membrane; settings: Not Active = under 50% inhibition at 10 µM
[5] = DRUGMATRIX: Calcium Channel Type L, Phenylalkylamine radioligand binding (ligand: [3H] (-)-Desmethoxyverapamil (D-888)); format: cell membranes, Rattus norvegicus, Wistar, Brain, Membrane; settings: Not Active = under 50% inhibition at 10 µM

CC=CC(=O)N(CC)c1ccccc1C
Not Active: IC50 [1] | Ki [1] | IC50 [2] | IC50 (Cytochrome P450 2A6) | Ki (Cytochrome P450 2A6) | IC50 [3] | Ki [3] | IC50 [4] | Ki [4] | IC50 [5] | Ki [5]

CC(/C=C1\SC(=S)N(CC(=O)O)C1=O)=C\c1ccccc1
Not Active: IC50 [1] | Ki [1] | IC50 [2] | IC50 (Cytochrome P450 2A6) | Ki (Cytochrome P450 2A6) | IC50 [3] | Ki [3] | IC50 [4] | Ki [4] | IC50 [5] | Ki [5]

CCCCCCCCCc1ccc(O)cc1 [4-NONYLPHENOL]
Not Active: IC50 [1] | Ki [1] | IC50 [2] | IC50 (Cytochrome P450 2A6) | Ki (Cytochrome P450 2A6) | IC50 [3] | Ki [3] | IC50 [4] | Ki [4] | IC50 [5] | Ki [5]

CCCSc1ccc2nc(NC(=O)OC)[nH]c2c1 [ALBENDAZOLE]
Not Active: IC50 [1] | Ki [1] | IC50 [2] | IC50 (Cytochrome P450 2A6) | Ki (Cytochrome P450 2A6) | IC50 [3] | Ki [3] | IC50 [4] | Ki [4] | IC50 [5] | Ki [5]

CCOC(=O)OC(C)OC1=C(C(=O)Nc2ccccn2)N(C)S(=O)(=O)c2ccccc21 (stereo not drawn) [AMPIROXICAM]
Not Active: IC50 [1] | Ki [1] | IC50 [2] | IC50 (Cytochrome P450 2A6) | Ki (Cytochrome P450 2A6) | IC50 [3] | Ki [3] | IC50 [4] | Ki [4] | IC50 [5] | Ki [5]

N=C(N)NCCCCNC(=N)N.O=S(=O)(O)O [ARCAINE SULFATE]
Not Active: IC50 [1] | Ki [1] | IC50 [2] | IC50 (Cytochrome P450 2A6) | Ki (Cytochrome P450 2A6) | IC50 [3] | Ki [3] | IC50 [4] | Ki [4] | IC50 [5] | Ki [5]

Cc1ccccc1N1CCN(CCc2nnc3n2CCCC3)CC1 [DAPIPRAZOLE]
Not Active: IC50 [1] | Ki [1] | IC50 (Cytochrome P450 2A6) | Ki (Cytochrome P450 2A6) | IC50 [3] | Ki [3] | IC50 [4] | Ki [4] | IC50 [5] | Ki [5]

O=C1OCCN1/N=C/c1ccc([N+](=O)[O-])o1 [FURAZOLIDONE]
Not Active: IC50 [1] | Ki [1] | IC50 [2] | IC50 [3] | Ki [3] | IC50 [4] | Ki [4] | IC50 [5] | Ki [5]

NCC(=O)O [GLYCINE]
Not Active: IC50 [1] | Ki [1] | IC50 [2] | IC50 [3] | Ki [3] | IC50 [4] | Ki [4] | IC50 [5] | Ki [5]

O=P1(NCCCl)OCCCN1CCCl (stereo not drawn) [IFOSFAMIDE]
Not Active: IC50 [1] | Ki [1] | IC50 [2] | IC50 [3] | Ki [3] | IC50 [4] | Ki [4] | IC50 [5] | Ki [5]
